Assay results taken from patent US20210139497A1, “THIENOCYCLIC COMPOUND AND SYNTHESIS METHOD THEREFOR AND APPLICATION THEREOF” (SHANGHAI YUYAO BIOTECH LTD., priority 2017, published 2021).

Legend:
[1] = Cytotoxicity evaluation (CCK8), CT26; settings: mouse, CT26 intestinal cancer cells
Description: (§5) Cells with a density of 2000-8000 cells per 100 μL medium were seeded in 96-well plates (Falcon, CA) and incubated for 24 hours, then treated with drugs having different concentration gradient (at least 4 replicates per concentration) and incubated at 37° C. in 5% CO2 incubator for 72 hours. Then cell viability was detected by CCK8 method. That is to say, add 10 μL CCK8 to each well and incubate for 0.33-2 h, and the OD values are read by microplate reader at 450 nm. The inhibition rate on cell survival of compounds with each concentration were calculated.
(§6) Inhibition rate on cell survival=(OD value of groups with each concentration/OD
(§7) value of control group)×100%±standard deviation.
(§8) The IC50 of drugs were calculated using GraphPad Prism 5.0.

[2] = Cytotoxicity evaluation (CCK8), PANC02; settings: mouse, PANC02 pancreatic cancer cells
Description: as §5, §6, §7, §8

[3] = biological target: T1, human PGE2 receptor EP4 subtype (hEP4) (Homo sapiens, UniProt P35408); assay: Calcium flux of human prostaglandin E2 receptor EP4 subtype; type: cell-based; settings: CHO-K1-Gα16 cells overexpressing hEP4, calcium flux activated by prostaglandin E2; read-out: hEP4 Ca^2+ IC50
T1 construct: expressed in transfected cells; host or cells: CHO-K1-Gα16
T1 sequence (P35408 whole entry): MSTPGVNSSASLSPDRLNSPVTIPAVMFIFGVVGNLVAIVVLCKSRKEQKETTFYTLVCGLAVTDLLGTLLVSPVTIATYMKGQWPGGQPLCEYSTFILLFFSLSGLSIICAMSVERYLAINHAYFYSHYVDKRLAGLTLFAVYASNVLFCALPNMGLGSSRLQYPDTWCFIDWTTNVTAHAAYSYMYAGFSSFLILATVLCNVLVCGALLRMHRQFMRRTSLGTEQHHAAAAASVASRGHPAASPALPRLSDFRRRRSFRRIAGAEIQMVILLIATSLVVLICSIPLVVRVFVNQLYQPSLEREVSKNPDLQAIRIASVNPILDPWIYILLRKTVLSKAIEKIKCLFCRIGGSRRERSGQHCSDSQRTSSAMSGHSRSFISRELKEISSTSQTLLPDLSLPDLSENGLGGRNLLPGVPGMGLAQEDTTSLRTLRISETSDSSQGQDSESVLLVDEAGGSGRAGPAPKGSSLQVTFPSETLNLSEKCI
Description: (§1) CHO-K1-Gα16 cells at the logarithmic growth phase were transfected with EP4 overexpressing vector by Lipofectamine 2000 and then seeded in a 96-well plate (Falcon, CA) and cultured at 20000 cells per 100 μL culture medium overnight. On the second day, every single well were added with 100 μL calcium 5 detection reagents (Molecular Devices) and incubated in incubator at 37° C., 5% CO2 for 45 minutes. The compounds were diluted in HBSS detection buffer, then added to 96-well plates. After incubated for 20 min at room temperature away from light, certain concentration of prostaglandin E2 was used to activate calcium flux of cells for detection (Flexstation 3, MD, CA).
(§2) Calculate the IC50 of the compounds of the invention in inhibiting the calcium flux of human PGE2 receptor EP4 subtype (hEP4) and mouse PGE2 receptor EP4 subtype (mEP4) (i.e. the concentration of drugs at which the intracellular Ca^2+ flux is inhibited by half after overexpressing hEP4 and mEP4 receptors in CHO-K1-Gα16 cells). The IC50 of the drugs were calculated using GraphPad Prism 5.

[4] = biological target: T2, mouse PGE2 receptor EP4 subtype (mEP4) (Mus musculus, UniProt P32240); assay: Calcium flux of mouse prostaglandin E2 receptor EP4 subtype; type: cell-based; settings: CHO-K1-Gα16 cells overexpressing mEP4, calcium flux activated by prostaglandin E2; read-out: mEP4 Ca^2+ IC50
T2 construct: expressed in transfected cells; host or cells: CHO-K1-Gα16
T2 sequence (P32240 whole entry): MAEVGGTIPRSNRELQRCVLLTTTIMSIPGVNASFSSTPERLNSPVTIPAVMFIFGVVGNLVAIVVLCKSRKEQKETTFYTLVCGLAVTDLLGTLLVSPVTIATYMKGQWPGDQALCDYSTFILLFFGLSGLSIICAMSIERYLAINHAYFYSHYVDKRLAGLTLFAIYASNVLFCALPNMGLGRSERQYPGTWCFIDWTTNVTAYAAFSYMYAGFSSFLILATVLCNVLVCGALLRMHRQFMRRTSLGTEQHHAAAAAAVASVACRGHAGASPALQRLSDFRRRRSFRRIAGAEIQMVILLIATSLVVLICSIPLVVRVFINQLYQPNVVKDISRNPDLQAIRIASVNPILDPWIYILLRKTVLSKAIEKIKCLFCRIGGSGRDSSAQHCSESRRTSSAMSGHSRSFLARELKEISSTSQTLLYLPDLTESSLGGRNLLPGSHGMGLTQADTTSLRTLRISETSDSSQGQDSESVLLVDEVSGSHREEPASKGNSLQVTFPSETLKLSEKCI
Description: as §1, §2

[5] = Cytotoxicity evaluation (CCK8), MOSJ; settings: mouse, MOSJ osteosarcoma cells
Description: as §5, §6, §7, §8

[6] = system: mouse colon cancer cells CT26; assay: CT26 subcutaneous tumor-bearing model, Balb/c mice; type: in vivo; settings: female Balb/c mice, 75 mg/kg/day, 14 days, vs negative control, FIG. 3
Description: 2×10^6 mouse colon cancer cells CT26 were subcutaneously injected into right side of each mouse's back (female Balb/c mouse, 6-8 weeks). The length and width of subcutaneous tumors in the back of mice were measured using vernier calipers, and tumor volume (mm^3)=(length(mm)×width(mm)×width(mm)×n)/6 was calculated. […] The volume of subcutaneous tumors on the back of mice was measured and counted twice a week. Continuous administrated for a period of 14 days and the changes of tumor volumes were recorded.
Mouse colon cancer cells MC38, pancreatic cancer cells Pan02, breast cancer cells 4T1, prostate cancer cells RM-1 and colon cancer cells CT26 were cultivated to required amount. Then, cells at a cell density of 5×10^5-2×10^6 were subcutaneously injected into right side of the back of selected female C57BL/6 mice aging 6-8 weeks (MC38, Pan02), male C57BL/6 mice aging 6-8 weeks (RM-1), female Balb/c mice aging 6-8 weeks (4T1, CT26) and female Balb/c nude mice aging 6-8 weeks (CT26). The length and width of subcutaneous tumors in the backs of mice were measured using vernier calipers, and tumor volume(mm^3)=(length(mm)×width(mm)×width(mm)×n)/6 was calculated. […] The volume of subcutaneous tumors on the back of mice was measured and counted 2-4 times a week. Continuous administrated for 12-22 days and the changes of tumor volumes were recorded.

[7] = Cytotoxicity evaluation (CCK8), LLC; settings: mouse, LLC lung cancer cells
Description: as §5, §6, §7, §8

[8] = Cytotoxicity evaluation (CCK8), 293; settings: human
[9] = Cytotoxicity evaluation (CCK8), EMT-6; settings: mouse, EMT-6 breast cancer cells
Description: as §5, §6, §7, §8

[10] = biological target: T3, human prostaglandin E2 receptor EP2 subtype (Homo sapiens, UniProt P43116); assay: Calcium flux of human prostaglandin E2 receptor EP2 subtype; type: cell-based; settings: CHO-K1-Gα16 cells overexpressing human EP2, activated by prostaglandin E2; read-out: hEP2 Ca^2+ IC50
T3 construct: expressed in transfected cells; host or cells: CHO-K1-Gα16
T3 sequence (P43116 whole entry): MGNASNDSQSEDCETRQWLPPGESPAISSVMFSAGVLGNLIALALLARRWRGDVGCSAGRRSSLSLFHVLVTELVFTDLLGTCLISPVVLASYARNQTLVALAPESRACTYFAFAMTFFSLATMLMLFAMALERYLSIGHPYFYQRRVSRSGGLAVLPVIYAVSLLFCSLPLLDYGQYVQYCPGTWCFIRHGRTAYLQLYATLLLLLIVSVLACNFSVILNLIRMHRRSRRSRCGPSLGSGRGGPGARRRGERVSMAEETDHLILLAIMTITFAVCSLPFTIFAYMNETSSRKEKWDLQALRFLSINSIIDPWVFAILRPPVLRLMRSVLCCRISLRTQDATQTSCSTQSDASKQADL
Description: (§3) CHO-K1-Gα16 cells at the logarithmic growth phase were transfected with human prostaglandin E2 Receptor subtypes EP1, EP2 or EP3 overexpressing vector by Lipofectamine 2000, then seeded in a 96-well plate (Falcon, CA) at a density of 20000 cells per 100 μL culture medium for overnight culture. On the second day, every single well were added with 100 μL calcium 5 detection reagents (Molecular Devices) and incubated in incubator at 37° C., 5% CO2 for 45 minutes. The compounds were diluted with HBSS detection buffer, then were added to 96-well plates. After 20 min incubation at room temperature in the dark, prostaglandin E2 at certain concentration was used to activate calcium flux of cells for detection (Flexstation 3, MD, CA).
(§4) Calculate the IC50 of the compounds of the invention in inhibiting the calcium flux of human EP1, EP2, and EP3 receptor (i.e. the concentration of drugs at which the intracellular Ca^2+ flux being inhibited by half after overexpressing human EP1, EP2, and EP3 receptors in CHO-K1-Gα16 cells). The IC50 of the drugs were calculated using GraphPad Prism 5.

[11] = biological target: T4, human prostaglandin E2 receptor EP3 subtype (Homo sapiens, UniProt P43115); assay: Calcium flux of human prostaglandin E2 receptor EP3 subtype; type: cell-based; settings: CHO-K1-Gα16 cells overexpressing human EP3, activated by prostaglandin E2; read-out: hEP3 Ca^2+ IC50
T4 construct: expressed in transfected cells; host or cells: CHO-K1-Gα16
T4 sequence (P43115 1-390): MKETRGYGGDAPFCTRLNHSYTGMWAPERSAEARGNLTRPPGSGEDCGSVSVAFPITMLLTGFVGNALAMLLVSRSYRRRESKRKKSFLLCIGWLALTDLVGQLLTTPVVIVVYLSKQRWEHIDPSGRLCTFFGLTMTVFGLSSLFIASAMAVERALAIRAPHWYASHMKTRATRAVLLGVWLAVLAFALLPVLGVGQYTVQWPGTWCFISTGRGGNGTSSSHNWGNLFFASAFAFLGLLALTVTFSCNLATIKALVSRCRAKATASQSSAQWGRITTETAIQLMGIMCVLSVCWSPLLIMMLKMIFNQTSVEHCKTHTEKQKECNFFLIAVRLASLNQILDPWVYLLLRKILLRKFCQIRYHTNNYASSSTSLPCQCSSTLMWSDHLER
Description: as §3, §4

[12] = biological target: T5, human prostaglandin E2 receptor EP1 subtype (Homo sapiens, UniProt P34995); assay: Calcium flux of human prostaglandin E2 receptor EP1 subtype; type: cell-based; settings: CHO-K1-Gα16 cells overexpressing human EP1, activated by prostaglandin E2; read-out: hEP1 Ca^2+ IC50
T5 construct: expressed in transfected cells; host or cells: CHO-K1-Gα16
T5 sequence (P34995 1-402): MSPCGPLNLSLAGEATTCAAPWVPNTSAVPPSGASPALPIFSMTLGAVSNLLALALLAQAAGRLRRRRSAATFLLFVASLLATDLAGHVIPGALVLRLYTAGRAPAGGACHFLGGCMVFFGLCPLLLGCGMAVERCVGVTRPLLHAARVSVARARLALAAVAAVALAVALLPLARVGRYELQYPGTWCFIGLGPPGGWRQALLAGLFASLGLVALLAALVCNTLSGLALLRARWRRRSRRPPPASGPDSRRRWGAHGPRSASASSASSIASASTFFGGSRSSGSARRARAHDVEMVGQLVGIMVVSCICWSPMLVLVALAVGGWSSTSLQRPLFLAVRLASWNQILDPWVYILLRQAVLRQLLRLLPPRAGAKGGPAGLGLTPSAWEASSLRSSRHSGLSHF
Description: as §3, §4

[13] = system: mouse models of colon cancer, breast cancer, pancreatic cancer and sarcoma; settings: Oncoimmunology 2017; cited from earlier work

SMILES: C[C@H](NC(=O)c1c(Cc2ccc(C(F)(F)F)cc2)sc2c1CCOC2)c1ccc(C(=O)O)cc1 [YJ115, (S)-4-(1-(2-(4-(trifluoromethyl)benzyl)-5,7-dihydro-4H-thieno[2,3-c]pyran-3-carboxamido)ethyl)benzoic Acid]
- IC50 at 72 h [1]: > 100 µM
- IC50 at 72 h [2]: > 100 µM
- IC50 [3]: < 100 nM
- IC50 [4]: < 100 nM
- IC50 at 72 h [5]: > 100 µM
- Inhibitory effect on growth of subcutaneous CT26 colon cancer [6]: able to suppress the growth
- IC50 at 72 h [7]: > 100 µM
- IC50 at 72 h [8]: > 100 µM
- IC50 at 72 h [9]: > 100 µM

SMILES: C[C@H](NC(=O)c1c(Cc2cccc(C(F)(F)F)c2)sc2c1CCOC2)c1ccc(C(=O)O)cc1 [YJ116, (S)-4-(1-(2-(3-(trifluoromethyl)benzyl)-5,7-dihydro-4H-thieno[2,3-c]pyran-3-carboxamido)ethyl)benzoic Acid]
- IC50 at 72 h [1]: > 100 µM
- IC50 at 72 h [2]: > 100 µM
- IC50 [3]: < 100 nM
- IC50 [4]: < 100 nM
- IC50 [10]: > 10 µM
- IC50 [11]: > 10 µM
- IC50 at 72 h [5]: > 100 µM
- IC50 [12]: > 10 µM
- Inhibitory effect on growth of subcutaneous CT26 colon cancer [6]: able to suppress the growth
- IC50 at 72 h [7]: > 100 µM
- IC50 at 72 h [8]: > 100 µM
- IC50 at 72 h [9]: > 100 µM

SMILES: O=C(O)c1ccc(CNC(=O)c2c(Cc3ccc(F)cc3)sc3c2CCOC3)cc1 [YJ120, 4-((2-(4-fluorobenzyl)-4,7-dihydro-5H-thieno[2,3-c]pyran-3-carboxamido)methyl)benzoic Acid]
- IC50 at 72 h [1]: > 100 µM
- IC50 at 72 h [2]: > 100 µM
- IC50 [4]: < 100 nM
- IC50 at 72 h [5]: > 100 µM
- Inhibitory effect on growth of subcutaneous CT26 colon cancer [6]: able to suppress the growth
- IC50 at 72 h [7]: > 100 µM
- IC50 at 72 h [8]: > 100 µM
- IC50 at 72 h [9]: > 100 µM

SMILES: C[C@H](NC(=O)c1c(CCc2cccc(F)c2)sc2c1CCOC2)c1ccc(C(=O)O)cc1 [YJ113, (S)-4-(1-(2-(3-fluorophenethyl)-4,7-dihydro-5H-thieno[2,3-c]pyran-3-carboxamido)ethyl)benzoic Acid]
- IC50 at 72 h [1]: > 100 µM
- IC50 at 72 h [2]: > 100 µM
- IC50 [3]: < 100 nM
- IC50 [4]: 100 to 1000 nM
- IC50 [10]: > 10 µM
- IC50 [11]: > 10 µM
- IC50 at 72 h [5]: > 100 µM
- IC50 [12]: > 10 µM
- IC50 at 72 h [7]: > 100 µM
- IC50 at 72 h [8]: > 100 µM
- IC50 at 72 h [9]: > 100 µM

SMILES: C[C@H](NC(=O)c1c(C#Cc2ccc(F)cc2)sc2c1CCCCC2)c1ccc(C(=O)O)cc1 [YJ104, (S)-4-(1-(2-((4-fluorophenyl)ethynyl)-5,6,7,8-tetrahydro-4H-cyclohepta[b]thiophene-3-carboxamido)ethyl)benzoic Acid]
- IC50 at 72 h [1]: > 100 µM
- IC50 at 72 h [2]: > 100 µM
- IC50 [3]: < 100 nM
- IC50 [4]: 100 to 1000 nM
- IC50 [10]: > 10 µM
- IC50 [11]: > 10 µM
- IC50 at 72 h [5]: > 100 µM
- IC50 [12]: > 10 µM
- IC50 at 72 h [7]: > 100 µM
- IC50 at 72 h [8]: > 100 µM
- IC50 at 72 h [9]: > 100 µM

SMILES: C[C@H](NC(=O)c1c(CCc2ccc(F)cc2)sc2c1CCOC2)c1ccc(C(=O)O)cc1 [YJ106, (S)-4-(1-(2-(4-fluorophenethyl)-4,7-dihydro-5H-thieno[2,3-c]pyran-3-carboxamido)ethyl)benzoic Acid]
- IC50 at 72 h [1]: > 100 µM
- IC50 at 72 h [2]: > 100 µM
- IC50 [3]: < 100 nM
- IC50 [4]: < 100 nM
- IC50 at 72 h [5]: > 100 µM
- Inhibitory effect on growth of subcutaneous CT26 colon cancer [6]: able to suppress the growth
- IC50 at 72 h [7]: > 100 µM
- IC50 at 72 h [8]: > 100 µM
- IC50 at 72 h [9]: > 100 µM

SMILES: C[C@H](NC(=O)c1c(C(F)F)nn(C)c1Oc1cccc(C(F)(F)F)c1)c1ccc(C(=O)O)cc1 [Compound E7046, reference compound]
- Inhibitory effect on growth of subcutaneous CT26 colon cancer [6]: comparable with that of E7046
- Inhibitory effects in mouse tumor models [13]: good inhibitory effects
